In patent US20220280516A1, “PEGYLATED HEPARIN NANOMICELLE LOADED WITH CARBOXYLIC ACID ANTI-TUMOR DRUG AND PREPARATION METHOD THEREOF” (priority 2020, published 2022):

Test system: 5T33 multiple myeloma cells
Assay: In vivo experiment of multiple myeloma
Details: 5T33 myeloma mice, subcutaneous
Procedure: Thirty 6-week-old mice are divided into three groups, which are administrated with free bendamustine (Group I), PEG-Py-HP-bendamustine (Group II) and PEG-Mal-HP-bendamustine (Group III) respectively. Male and female animals in each group are halved, and there is no statistically significant difference in body weight among animals in each group. The dosage of free bendamustine group is 0.1 ml/kg body weight/day, and that of PEG-Py-HP-bendamustine group and PEG-Mal-HP-bendamustine group is 20 mg/kg (body weight/day).
One week after injection of 1,000,000 5T33 multiple myeloma cells into the tail veins of mice, drugs are administered subcutaneously according to the above scheme, for three times a week. During the administration period, the animals are weighed every day, and the dosage on that day is determined according to the weight, and the animals are continuously administered until the death of the mice. The venous blood of mice is collected and stored every week, and the time of death of mice is recorded.

Cn1c(CCCC(=O)O)nc2cc(N(CCCl)CCCl)ccc21 [free bendamustine, Bendamustine]
Average survival days of mice after drug injection (three times a week until death): 36 days
Average tumor load in serum of mice after drug injection (1 day): 132.2 µg/mL
Average tumor load in serum of mice after drug injection (8 days): 201.5 µg/mL
Average tumor load in serum of mice after drug injection (15 days): 321.2 µg/mL
Average tumor load in serum of mice after drug injection (22 days): 608.4 µg/mL
Average tumor load in serum of mice after drug injection (29 days): 873.3 µg/mL
Average tumor load in serum of mice after drug injection (36 days): 946.8 µg/mL
